Experiments:
Type in all cases: in vivo
[1] = system: Abutilon theophrasti Medic.; assay: Bioassay of herbicidal activity in greenhouse (further screening)
Summary of the method: (§1)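 Monocot and dicot weeds grown in greenhouse pots; emulsifiable concentrate track-sprayed at 500 L/hm² pre-emergence (24 h after seeding) or post-emergence (grasses 2–3-leaf, broad-leaves 2–4-leaf). Growth inhibition scored visually, 0 = no action, 100 = all dead or not emerged.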

[2] = system: Echinochloa crus-galli (L.) Beauv.; assay: as above
Summary of the method: as §1

[3] = system: Setaria glauca (L.) Beauv.; assay: as above
Summary of the method: as §1

[4] = system: Zinnia elegans Jacq.; assay: as above
Summary of the method: as §1

[5] = system: broad-leaf weeds and grass weeds; assay: General screening of herbicidal activity in greenhouse; conditions: 1000 g a.i./hm^2;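 also: 0 means no visible effect and 100 means all weeds dead or not emerged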
Summary of the method: as §1

[6] = system: maize; assay: Crop safety study in greenhouse; conditions: 7.5-37.5 g a.i./hm^2; pre-emergence and post-emergence application
Source text: (§2) Seeds of soybean, cotton, maize, wheat and rice were sown in nutrition soil in paper pot (9 cm diameter), covered with soil in 1 cm and grown in the greenhouse under good growth conditions (temperature, atmospheric humidity, water supply). The compounds of the present invention as emulsifiable concentrate, were applied in pre-emergence and post-emergence treatment by track sprayer (Engineer Research Ltd., pressure 1.95 kg/cm^2, volume 500 L/hm^2, track speed 1.48 km/h). Pre-emergence treatment was conducted after seeding 24 hours and post-emergence treatment was done when the respective weeds reached predetermined leaf stage (soybean and cotton at 2- to 4-leaf stage and maize, wheat and rice at 3-leaf stage), the state of growth of the respective crops were visually observed to determine the safety in accordance with the following evaluation standard.
(§3) Safety rating scale (%): 0 means no damage to crops; 100 means to kill crops completely.

[7] = system: rice; assay: Crop safety study in greenhouse; conditions: 7.5-37.5 g a.i./hm^2; pre-emergence and post-emergence application
Source text: as §2, §3

[8] = system: wheat; assay: Crop safety study in greenhouse; conditions: 7.5-37.5 g a.i./hm^2; pre-emergence and post-emergence application
Source text: as §2, §3

**Q.** What does the source list for Cn1c(C(F)(F)F)cc(=O)n(-c2cc(C3=NOC(C)(COC(=O)C4CC4)C3)c(Cl)cc2F)c1=O (stereo not shown) [Compound 45]?
**A.** Growth inhibition rate, Post-emergence treatment, Abutilon theophrasti Medic. ([1]; dose 7.5 g a.i./hm^2): 98%; Growth inhibition rate, Post-emergence treatment, Abutilon theophrasti Medic. ([1]; dose 15 g a.i./hm^2): 100%; Growth inhibition rate, Post-emergence treatment, Abutilon theophrasti Medic. ([1]; dose 37.5 g a.i./hm^2): 100%; Growth inhibition rate, Post-emergence treatment, Abutilon theophrasti Medic. ([1]; dose 150 g a.i./hm^2): 100%; Growth inhibition rate, Post-emergence treatment, Abutilon theophrasti Medic. ([1]; dose 600 g a.i./hm^2): 100%; Growth inhibition rate, Pre-emergence treatment, Abutilon theophrasti Medic. ([1]; dose 7.5 g a.i./hm^2): 98%; Growth inhibition rate, Pre-emergence treatment, Abutilon theophrasti Medic. ([1]; dose 15 g a.i./hm^2): 100%; Growth inhibition rate, Pre-emergence treatment, Abutilon theophrasti Medic. ([1]; dose 37.5 g a.i./hm^2): 95%; Growth inhibition rate, Pre-emergence treatment, Abutilon theophrasti Medic. ([1]; dose 150 g a.i./hm^2): 100%; Growth inhibition rate, Pre-emergence treatment, Abutilon theophrasti Medic. ([1]; dose 600 g a.i./hm^2): 100%; Growth inhibition rate, Post-emergence treatment, Echinochloa crus-galli (L.) Beauv. ([2]; dose 7.5 g a.i./hm^2): 15%; Growth inhibition rate, Post-emergence treatment, Echinochloa crus-galli (L.) Beauv. ([2]; dose 15 g a.i./hm^2): 15%; Growth inhibition rate, Post-emergence treatment, Echinochloa crus-galli (L.) Beauv. ([2]; dose 37.5 g a.i./hm^2): 25%; Growth inhibition rate, Post-emergence treatment, Echinochloa crus-galli (L.) Beauv. ([2]; dose 150 g a.i./hm^2): 80%; Growth inhibition rate, Post-emergence treatment, Echinochloa crus-galli (L.) Beauv. ([2]; dose 600 g a.i./hm^2): 100%; Growth inhibition rate, Pre-emergence treatment, Echinochloa crus-galli (L.) Beauv. ([2]; dose 7.5 g a.i./hm^2): 5%; Growth inhibition rate, Pre-emergence treatment, Echinochloa crus-galli (L.) Beauv. ([2]; dose 15 g a.i./hm^2): 10%; Growth inhibition rate, Pre-emergence treatment, Echinochloa crus-galli (L.) Beauv. ([2]; dose 37.5 g a.i./hm^2): 20%; Growth inhibition rate, Pre-emergence treatment, Echinochloa crus-galli (L.) Beauv. ([2]; dose 150 g a.i./hm^2): 85%; Growth inhibition rate, Pre-emergence treatment, Echinochloa crus-galli (L.) Beauv. ([2]; dose 600 g a.i./hm^2): 100%; Growth inhibition rate, Post-emergence treatment, Setaria glauca (L.) Beauv. ([3]; dose 7.5 g a.i./hm^2): 30%; Growth inhibition rate, Post-emergence treatment, Setaria glauca (L.) Beauv. ([3]; dose 15 g a.i./hm^2): 45%; Growth inhibition rate, Post-emergence treatment, Setaria glauca (L.) Beauv. ([3]; dose 37.5 g a.i./hm^2): 50%; Growth inhibition rate, Post-emergence treatment, Setaria glauca (L.) Beauv. ([3]; dose 150 g a.i./hm^2): 85%; Growth inhibition rate, Post-emergence treatment, Setaria glauca (L.) Beauv. ([3]; dose 600 g a.i./hm^2): 98%; Growth inhibition rate, Pre-emergence treatment, Setaria glauca (L.) Beauv. ([3]; dose 7.5 g a.i./hm^2): 70%; Growth inhibition rate, Pre-emergence treatment, Setaria glauca (L.) Beauv. ([3]; dose 15 g a.i./hm^2): 80%; Growth inhibition rate, Pre-emergence treatment, Setaria glauca (L.) Beauv. ([3]; dose 37.5 g a.i./hm^2): 95%; Growth inhibition rate, Pre-emergence treatment, Setaria glauca (L.) Beauv. ([3]; dose 150 g a.i./hm^2): 90%; Growth inhibition rate, Pre-emergence treatment, Setaria glauca (L.) Beauv. ([3]; dose 600 g a.i./hm^2): 100%; Growth inhibition rate, Post-emergence treatment, Zinnia elegans Jacq. ([4]; dose 7.5 g a.i./hm^2): 95%; Growth inhibition rate, Post-emergence treatment, Zinnia elegans Jacq. ([4]; dose 15 g a.i./hm^2): 100%; Growth inhibition rate, Post-emergence treatment, Zinnia elegans Jacq. ([4]; dose 37.5 g a.i./hm^2): 100%; Growth inhibition rate, Post-emergence treatment, Zinnia elegans Jacq. ([4]; dose 150 g a.i./hm^2): 100%; Growth inhibition rate, Post-emergence treatment, Zinnia elegans Jacq. ([4]; dose 600 g a.i./hm^2): 100%; Growth inhibition rate, Pre-emergence treatment, Zinnia elegans Jacq. ([4]; dose 7.5 g a.i./hm^2): 20%; Growth inhibition rate, Pre-emergence treatment, Zinnia elegans Jacq. ([4]; dose 15 g a.i./hm^2): 20%; Growth inhibition rate, Pre-emergence treatment, Zinnia elegans Jacq. ([4]; dose 37.5 g a.i./hm^2): 90%; Growth inhibition rate, Pre-emergence treatment, Zinnia elegans Jacq. ([4]; dose 150 g a.i./hm^2): 95%; Growth inhibition rate, Pre-emergence treatment, Zinnia elegans Jacq. ([4]; dose 600 g a.i./hm^2): 100%; pre-emergence and post-emergence herbicidal activity against broad-leaf weeds and grass weeds [5]: good; Crop safety, maize [6]: good safety; Crop safety, rice [7]: good safety; Crop safety, wheat [8]: good safety

**Q.** Which “Growth inhibition rate, Post-emergence treatment, Abutilon theophrasti Medic.” value ([1]; dose 7.5 g a.i./hm^2) does the source give for Cn1c(C(F)(F)F)cc(=O)n(-c2cc(C3=NOC(C)(COC(=O)COc4ccc(Cl)cc4Cl)C3)c(Cl)cc2F)c1=O (stereo not shown) [Compound 83] here?
**A.** 65%

**Q.** What about the “Growth inhibition rate, Post-emergence treatment, Abutilon theophrasti Medic.” value ([1]; dose 15 g a.i./hm^2) of the same molecule?
**A.** 98%

**Q.** What about the “Growth inhibition rate, Post-emergence treatment, Abutilon theophrasti Medic.” value ([1]; dose 37.5 g a.i./hm^2) of the same molecule?
**A.** 100%

**Q.** What about the “Growth inhibition rate, Post-emergence treatment, Abutilon theophrasti Medic.” value ([1]; dose 150 g a.i./hm^2) of the same molecule?
**A.** 100%

**Q.** What about the “Growth inhibition rate, Post-emergence treatment, Abutilon theophrasti Medic.” value ([1]; dose 600 g a.i./hm^2) of the same molecule?
**A.** 100%

**Q.** And the “Growth inhibition rate, Pre-emergence treatment, Abutilon theophrasti Medic.” value ([1]; dose 7.5 g a.i./hm^2)?
**A.** 0%

**Q.** And the “Growth inhibition rate, Pre-emergence treatment, Abutilon theophrasti Medic.” value ([1]; dose 15 g a.i./hm^2)?
**A.** 30%

**Q.** And the “Growth inhibition rate, Pre-emergence treatment, Abutilon theophrasti Medic.” value ([1]; dose 37.5 g a.i./hm^2)?
**A.** 50%

**Q.** And the “Growth inhibition rate, Pre-emergence treatment, Abutilon theophrasti Medic.” value ([1]; dose 150 g a.i./hm^2)?
**A.** 100%

**Q.** And the “Growth inhibition rate, Pre-emergence treatment, Abutilon theophrasti Medic.” value ([1]; dose 600 g a.i./hm^2)?
**A.** 100%

**Q.** And the “Growth inhibition rate, Post-emergence treatment, Echinochloa crus-galli (L.) Beauv.” value ([2]; dose 7.5 g a.i./hm^2)?
**A.** 25%

**Q.** What about the “Growth inhibition rate, Post-emergence treatment, Echinochloa crus-galli (L.) Beauv.” value ([2]; dose 15 g a.i./hm^2) of the same molecule?
**A.** 25%

**Q.** What about the “Growth inhibition rate, Post-emergence treatment, Echinochloa crus-galli (L.) Beauv.” value ([2]; dose 37.5 g a.i./hm^2) of the same molecule?
**A.** 30%

**Q.** And the “Growth inhibition rate, Post-emergence treatment, Echinochloa crus-galli (L.) Beauv.” value ([2]; dose 150 g a.i./hm^2)?
**A.** 45%

**Q.** What about the “Growth inhibition rate, Post-emergence treatment, Echinochloa crus-galli (L.) Beauv.” value ([2]; dose 600 g a.i./hm^2) of the same molecule?
**A.** 90%

**Q.** And the “Growth inhibition rate, Pre-emergence treatment, Echinochloa crus-galli (L.) Beauv.” value ([2]; dose 7.5 g a.i./hm^2)?
**A.** 10%

**Q.** What about the “Growth inhibition rate, Pre-emergence treatment, Echinochloa crus-galli (L.) Beauv.” value ([2]; dose 15 g a.i./hm^2) of the same molecule?
**A.** 10%

**Q.** And the “Growth inhibition rate, Pre-emergence treatment, Echinochloa crus-galli (L.) Beauv.” value ([2]; dose 37.5 g a.i./hm^2)?
**A.** 25%

**Q.** What about the “Growth inhibition rate, Pre-emergence treatment, Echinochloa crus-galli (L.) Beauv.” value ([2]; dose 150 g a.i./hm^2) of the same molecule?
**A.** 90%

**Q.** And the “Growth inhibition rate, Pre-emergence treatment, Echinochloa crus-galli (L.) Beauv.” value ([2]; dose 600 g a.i./hm^2)?
**A.** 100%

**Q.** And the “Growth inhibition rate, Post-emergence treatment, Setaria glauca (L.) Beauv.” value ([3]; dose 7.5 g a.i./hm^2)?
**A.** 30%

**Q.** And the “Growth inhibition rate, Post-emergence treatment, Setaria glauca (L.) Beauv.” value ([3]; dose 15 g a.i./hm^2)?
**A.** 45%

**Q.** What about the “Growth inhibition rate, Post-emergence treatment, Setaria glauca (L.) Beauv.” value ([3]; dose 37.5 g a.i./hm^2) of the same molecule?
**A.** 50%

**Q.** What about the “Growth inhibition rate, Post-emergence treatment, Setaria glauca (L.) Beauv.” value ([3]; dose 150 g a.i./hm^2) of the same molecule?
**A.** 70%

**Q.** And the “Growth inhibition rate, Post-emergence treatment, Setaria glauca (L.) Beauv.” value ([3]; dose 600 g a.i./hm^2)?
**A.** 85%

**Q.** And the “Growth inhibition rate, Pre-emergence treatment, Setaria glauca (L.) Beauv.” value ([3]; dose 7.5 g a.i./hm^2)?
**A.** 10%

**Q.** And the “Growth inhibition rate, Pre-emergence treatment, Setaria glauca (L.) Beauv.” value ([3]; dose 15 g a.i./hm^2)?
**A.** 15%

**Q.** What about the “Growth inhibition rate, Pre-emergence treatment, Setaria glauca (L.) Beauv.” value ([3]; dose 37.5 g a.i./hm^2) of the same molecule?
**A.** 35%

**Q.** What about the “Growth inhibition rate, Pre-emergence treatment, Setaria glauca (L.) Beauv.” value ([3]; dose 150 g a.i./hm^2) of the same molecule?
**A.** 80%

**Q.** What about the “Growth inhibition rate, Pre-emergence treatment, Setaria glauca (L.) Beauv.” value ([3]; dose 600 g a.i./hm^2) of the same molecule?
**A.** 100%

**Q.** What about the “Growth inhibition rate, Post-emergence treatment, Zinnia elegans Jacq.” value ([4]; dose 7.5 g a.i./hm^2) of the same molecule?
**A.** 65%

**Q.** What about the “Growth inhibition rate, Post-emergence treatment, Zinnia elegans Jacq.” value ([4]; dose 15 g a.i./hm^2) of the same molecule?
**A.** 90%

**Q.** And the “Growth inhibition rate, Post-emergence treatment, Zinnia elegans Jacq.” value ([4]; dose 37.5 g a.i./hm^2)?
**A.** 98%

**Q.** What about the “Growth inhibition rate, Post-emergence treatment, Zinnia elegans Jacq.” value ([4]; dose 150 g a.i./hm^2) of the same molecule?
**A.** 100%

**Q.** And the “Growth inhibition rate, Post-emergence treatment, Zinnia elegans Jacq.” value ([4]; dose 600 g a.i./hm^2)?
**A.** 100%

**Q.** And the “Growth inhibition rate, Pre-emergence treatment, Zinnia elegans Jacq.” value ([4]; dose 7.5 g a.i./hm^2)?
**A.** 0%

**Q.** What about the “Growth inhibition rate, Pre-emergence treatment, Zinnia elegans Jacq.” value ([4]; dose 15 g a.i./hm^2) of the same molecule?
**A.** 10%

**Q.** What about the “Growth inhibition rate, Pre-emergence treatment, Zinnia elegans Jacq.” value ([4]; dose 37.5 g a.i./hm^2) of the same molecule?
**A.** 50%

**Q.** And the “Growth inhibition rate, Pre-emergence treatment, Zinnia elegans Jacq.” value ([4]; dose 150 g a.i./hm^2)?
**A.** 100%

**Q.** What about the “Growth inhibition rate, Pre-emergence treatment, Zinnia elegans Jacq.” value ([4]; dose 600 g a.i./hm^2) of the same molecule?
**A.** 100%

**Q.** And the “pre-emergence and post-emergence herbicidal activity against broad-leaf weeds and grass weeds” value [5]?
**A.** good

**Q.** And the “Crop safety, maize” value [6]?
**A.** good safety

**Q.** And the “Crop safety, rice” value [7]?
**A.** good safety

**Q.** And the “Crop safety, wheat” value [8]?
**A.** good safety

From US10550111B2, “Pyrimidine urea compound containing isoxazolines and use thereof” (SHENYANG SINOCHEM AGROCHEMICALS R&D CO., LTD, priority 2014, dated 2020)
